What was measured:
Experiment in all cases: cells
[1] = tested on: NCM460 cells; assay type: cell-based; details: Homo sapiens, NCM460, read-out: IC50 (μM) ± SD (μM), NCM460
[2] = tested on: HCT-116 cells; assay type: cell-based, human
[3] = tested on: DLD1 cells; assay type: cell-based; details: Homo sapiens, DLD-1, read-out: IC50 (μM) ± SD (μM), DLD1
[4] = tested on: RKO cells; assay type: cell-based; details: Homo sapiens, read-out: IC50 (μM) ± SD (μM), RKO

## CC(=O)OC[C@H]1OC(OC(C)=O)[C@H](n2cc(C(=O)NC3([As](O)O)C=CC=CC3)nn2)[C@@H](OC(C)=O)[C@@H]1OC(C)=O (stereo partly drawn) [Compound 8, 1-(1-(1,3,4,6-tetra-O-acetyl-2-deoxy-D-glucopyranos-2-yl) -1H-1,2,3-triazole-4-carboxamido)phenyl arsonous acid]
[1]
  IC50: 16.1 ± 2.21 µM
[2]
  Selectivity index: 0.91
[2]; Homo sapiens, HCT-116, read-out: IC50 (μM) ± SD (μM), HCT-116
  IC50: 17.7 ± 1.44 µM
[3]
  IC50: 15 ± 2.72 µM
[4]
  IC50: 4.57 ± 0.17 µM
